Test results taken from ChEMBL document CHEMBL3507680, “University of Dundee, Gates Library screen for HepG2 cell viability”.

Test: Human HepG2 cell viability assay in 384 well format
Assay type: toxicity, cell-based
Design: dose 125 nL, time 70.5 hour; concentration not given beside the values
Conditions: HepG2 cells, read-out: Inhibition

Row | Compound | cytotoxicity at 70.5 h [%]
1 | Cc1ccc(N2CCCC(NCc3c(C)noc3C)C2)nn1 (configuration not stated) | -8.52
2 | Cc1ccc(S(=O)(=O)NCc2cccc(C(=O)N3CCCC3)c2)cc1F | -7.96
3 | Cn1ccc(CN2CCC(CN3CCOCC3)CC2)cc1=O | -7.39
4 | O=C(c1cn(-c2ccc(F)cc2)nn1)N1CCCC(n2cccn2)C1 (configuration not stated) | -1.26
5 | CCN(CC)C(=O)NCCc1ccn(-c2ccccc2)n1 | 11
6 | CCc1nc(CN2CCN(C(C)c3nc(C4CC4)no3)CC2)no1 (configuration not stated) | -10.3
7 | CC(C)(C)C(=O)NCCC(=O)NCCc1ccn(-c2ccccc2)n1 | -4.33
8 | O=C(CN1CCc2c(ncn2C2CC2)C1)NC1CCN(C2CC2)CC1 | 16.5
9 | Cc1cc(C)n(C2CCCN(C(=O)CCOc3cccc(F)c3)C2)n1 (configuration not stated) | -2.12
10 | CCn1ccnc1CN1CCCN(C(=O)c2cnc(C)cn2)CC1 | -5.42
11 | CC(C)c1noc(C(C)N2CCN(Cc3noc(C(C)(C)C)n3)CC2)n1 (configuration not stated) | -3.35
12 | Cn1ccc(CN2CCN(CC3CC3)CC2)cc1=O | 21.6
13 | Cc1cnn(CC2CCCN2Cc2nnc(C3CC3)n2C)c1 (configuration not stated) | -8.67
14 | CC(C)c1nc(C2CCCN(C(=O)c3nccn4ccnc34)C2)no1 (configuration not stated) | -7.38
15 | CCn1ccnc1CN1CCCN(C(=O)Cc2ccccc2C)CC1 | -1.08
16 | CC(c1nc(C2CC2)no1)N1CCN(Cc2noc(C3CC3)n2)CC1 (configuration not stated) | -2.08
17 | O=C(CCOCC(F)(F)F)N1CCCC(n2ccnc2)C1 (configuration not stated) | -6.65
18 | CCc1n[nH]c(C2CN(C(=O)c3cscn3)CCO2)n1 (configuration not stated) | 43
19 | CCc1n[nH]c(C2CN(C(=O)c3ccc4c(c3)COC4)CCO2)n1 (configuration not stated) | 18
20 | CN(CCc1ccncc1)CC1CCCN1c1cccnn1 (configuration not stated) | 25.1
21 | CN(Cc1ccccn1)CC1CCCN1c1cccnn1 (configuration not stated) | -5.71
22 | COc1cccc(COCC(=O)N2CCCC2Cn2cccn2)c1 (configuration not stated) | -11.8
23 | Cc1cnn(CC2CCCN2C(=O)c2cn(C)c3ccccc23)c1 (configuration not stated) | -9.04
24 | CN(Cc1cccc(C(N)=O)c1)CC1CCCN1c1cccnn1 (configuration not stated) | -10.2

Row | Compound | cytotoxicity at 70.5 h [%]
25 | CC(Cn1cccn1)NC(=O)NCc1cccnc1 (configuration not stated) | -9.07
26 | Cc1ccc(C(=O)NC2CCN(C(=O)Nc3ccccn3)CC2)s1 | 11.7
27 | Cc1nc(CN2CCOC(Cn3cccn3)C2)nc2ccccc12 (configuration not stated) | -12.1
28 | COc1ccc(C(=O)N(C)Cc2nnc3ccccn23)cc1 | 10.4
29 | COc1cc(OC)cc(C(=O)N(C)Cc2nnc3ccccn23)c1 | -1.71
30 | Cc1cnn(CC2CN(Cc3nc4ccccc4n3C)CCO2)c1 (configuration not stated) | 9.31
31 | CCN1CCN(C2CCN(Cc3nnc(C(C)C)o3)CC2)C1=O | -7.93
32 | O=C(c1nccc2ccccc12)N1CCCCC1Cn1cccn1 (configuration not stated) | -5.86
33 | COc1ccc(CC(=O)N2CCCCC2Cn2cccn2)cc1 (configuration not stated) | -3.73
34 | CNC(=O)c1ccc(C(=O)N2CCC(Nc3cccnn3)CC2)cn1 | -4.73
35 | CC(=O)Nc1nc(CN2CCOC(Cn3nc(C)cc3C)C2)cs1 (configuration not stated) | 10.6
36 | Cc1cnn(CCNCC(=O)NCC2(c3ccccc3)CC2)c1 | 31.1
37 | CCc1nc(C2CCCN(C(=O)c3ccc(Cl)cc3)C2)no1 (configuration not stated) | 5.79
38 | O=C(NCCCn1ccnc1)NCC(c1ccco1)N1CCCCC1 (configuration not stated) | 4.46
39 | Cc1cc(C)n(CC2CCCN2C(=O)c2ccnc(N(C)C)c2)n1 (configuration not stated) | 10.6
40 | O=C(c1cc(F)ccc1F)C1CCN(C(=O)c2ccco2)CC1 | -3.7
41 | CC(C)c1nc(C2CCCN(C(=O)c3ccc4[nH]nnc4c3)C2)no1 (configuration not stated) | -4
42 | c1ccc(CCCN2CCOC(Cn3cccn3)C2)cc1 (configuration not stated) | -6.46
43 | O=C(NCCCNc1ccc(C(F)(F)F)cn1)c1ccc(F)cc1Br | -6.12
44 | CN1CC(C(=O)NCc2cccnc2-n2cccn2)CC1=O (configuration not stated) | -6.03
45 | CCOc1ccc(OCC(O)CN2CCN(S(C)(=O)=O)CC2)cc1 (configuration not stated) | 0.695
46 | c1ccc2oc(CN3CCOC(Cn4cccn4)C3)nc2c1 (configuration not stated) | -0.847
47 | CCc1nc(C2CCCN(C(=O)c3cccc(C(N)=O)c3)C2)no1 (configuration not stated) | 1.02
48 | Cc1ccc(CNC(=O)Cc2c(C)nc3c(c2C)c(=O)[nH]n3C)cc1 | 4.93

Row | Compound | cytotoxicity at 70.5 h [%]
49 | O=C(NCCc1ccn(-c2ccccc2)n1)N1CCCC(CO)C1 (configuration not stated) | 1.65
50 | O=C(NCCc1ccn(-c2ccccc2)n1)N1CCSCC1 | 22.7
51 | Cc1cnn(CC2CCCN2C(=O)c2csc(-c3nnc[nH]3)n2)c1 (configuration not stated) | -5
52 | CN(C)c1cc(C(=O)N2CCCCC2Cn2cccn2)ccn1 (configuration not stated) | -1.9
53 | CC(=O)Nc1nc(C(=O)N2CCCCC2Cn2cc(C)cn2)cs1 (configuration not stated) | 5.83
54 | Cc1cnn(CC2CCCCN2C(=O)c2ccc3c(c2)COC3)c1 (configuration not stated) | 4.39
55 | CCc1ccc(OCC(O)CN2CCN(CC)CC2)cc1 (configuration not stated) | 20.5
56 | CCN(Cc1ccc2c(c1)OCO2)Cc1nc2c(cnn2C)c(=O)[nH]1 | 7.27
57 | c1cnnc(N2CCCC2CNCc2noc(C3CC3)n2)c1 (configuration not stated) | 27.1
58 | CCc1ccsc1C(=O)N1CCCN(Cc2cscn2)CC1 | 3.8
59 | CCc1nc(CNCC2CCCN2c2cccnn2)no1 (configuration not stated) | -4.56
60 | COc1ccnc(N2CCCN(C(=O)Cc3ccc(C)s3)CC2)n1 | 22.9
61 | Cc1ccc(CN(CC(=O)N2CCOC(C)C2)C2CC2)cc1 (configuration not stated) | -6.74
62 | Cc1ccsc1C(=O)N1CCN(Cc2cscn2)CC1 | -3.03
63 | CC1CN(C(=O)CN(Cc2ccco2)Cc2cccs2)CCO1 (configuration not stated) | 3
64 | CC1CN(C(=O)CN(Cc2ccccc2)C2CC2)CCO1 (configuration not stated) | -9.67
65 | Cc1cc(CN2Cc3ccccc3CC2c2nnc(C)o2)no1 (configuration not stated) | 1.64
66 | CC(C)NC(=O)Nc1ccc(CNCc2cccc(C#N)c2)cc1 | -3.33
67 | CCc1ccsc1C(=O)N1CCN(C(=O)CC(F)(F)F)CC1 | 3.81
68 | CCOc1ncccc1NC(=O)NC1CCN(S(C)(=O)=O)CC1 | 20.6
69 | CN(C(=O)CN1CCOC(Cn2cccn2)C1)c1nccs1 (configuration not stated) | 9.89
70 | COC(=O)c1cccn1C1CCN(Cc2ccccc2)CC1 | 15.7
71 | Cc1cnn(CC2CCCN2CC(=O)Nc2cc(C(C)(C)C)no2)c1 (configuration not stated) | 5.18
72 | CCc1ccsc1C(=O)N1CCN(CC(O)CC)CC1 (configuration not stated) | 6.44

Row | Compound | cytotoxicity at 70.5 h [%]
73 | CCOc1ncccc1C(=O)N1CCCC1c1c(C)nn(C)c1OC (configuration not stated) | 1.14
74 | Cc1cnn(CC2CCCN2C(=O)c2cc(Cl)ccc2F)c1 (configuration not stated) | 28.1
75 | c1ncn(CC2CN(CC3CCCC3)CCO2)n1 (configuration not stated) | 0.357
76 | O=C(NCc1nnc2n1CCCCC2)N1CCc2sccc2C1 | -5.42
77 | O=C(NCc1csc(Br)c1)c1ccc(=O)[nH]n1 | -15.6
78 | Cn1ccc(CN2CCC(CCc3ccc(O)cc3)CC2)cc1=O | -9.59
79 | Cc1nc(CN2CCCC2c2ccsc2)nc2ccccc12 (configuration not stated) | 4.71
80 | CCN1CCC(NC(=O)CN2CCc3c(ncn3C)C2)CC1 | 2.11
81 | Clc1ccc(-n2cc(CNC3CCc4ncnn4C3)cn2)cc1 (configuration not stated) | -12.4
82 | Cc1cnn(CC2CCCN2c2nn3cc(C)nc3s2)c1 (configuration not stated) | -4.6
83 | CCc1nccn1C1CCCN(C(=O)Cc2n[nH]c3ccccc23)C1 (configuration not stated) | -1.24
84 | Cc1nc2ccccc2nc1CN1CCCC1c1c(C)nn(C)c1C (configuration not stated) | -4.26
85 | Cc1ccsc1CNc1cc(N2CCCC2CO)ncn1 (configuration not stated) | -4.35
86 | Cc1[nH]ncc1C(=O)N1CCCC(n2cncn2)C1 (configuration not stated) | -1.06
87 | Cc1nc(C)n(C2CCCN(C(=O)c3cc(C(N)=O)cs3)C2)n1 (configuration not stated) | -17.1
88 | CCc1n[nH]c(C2CN(CCc3cccs3)CCO2)n1 (configuration not stated) | 22.1
89 | O=C(NCc1nnc2ccccn12)N1CCc2sccc2C1 | -21.7
90 | c1cnn(CC2CN(CC3CCCC3)CCO2)c1 (configuration not stated) | -9.69
91 | COc1ccc(C)cc1CN1CCCC1Cn1nc(C)nc1C (configuration not stated) | -9.81
92 | CCc1n[nH]c(C2CN(CCc3ccncc3)CCO2)n1 (configuration not stated) | -7.11
93 | Cc1nc(C2CCCN(C(=O)C(C)(C)n3cc(Cl)cn3)C2)no1 (configuration not stated) | -13.5
94 | COc1cccc(CCC(=O)N2CCCC(n3cc(C)cn3)C2)c1 (configuration not stated) | -15.8
95 | Cc1cnn(CC2CCCN2C(=O)c2ccc3[nH]nnc3c2)c1 (configuration not stated) | 17.5
96 | CC(C)c1nc(CN2CCN(C(C)c3nc(C4CC4)no3)CC2)no1 (configuration not stated) | -4.05

Row | Compound | cytotoxicity at 70.5 h [%]
97 | O=C(NCCCn1cncn1)NCC(c1ccco1)N1CCCCC1 (configuration not stated) | -18.7
98 | CC(Cn1cccn1)NC(=O)NCc1ccc(S(N)(=O)=O)cc1 (configuration not stated) | -7.93
99 | Cc1cnn(CC2CN(Cc3nc(N)c4ccccc4n3)CCO2)c1 (configuration not stated) | 22.8
100 | Cc1cnn(CC2CCCCN2C(=O)c2ccc3nnc(C)n3c2)c1 (configuration not stated) | -10.9
101 | O=C(CCc1cccs1)N1CCC(N2CCNC2=O)CC1 | -0.95
102 | Cc1ccc(C(=O)NC2CCN(C(=O)Nc3ccccn3)CC2)o1 | 16.1
103 | CCN(Cc1nc2c(cnn2C)c(=O)[nH]1)c1cccc(Cl)c1 | -15.8
104 | Cc1cc(F)ccc1S(=O)(=O)NCc1cccc(C(=O)N2CCCC2)c1 | -14.8
105 | COc1ccc(C(=O)N(C)Cc2nnc3ccccn23)c(OC)c1 | -15.7
106 | O=C(c1ccc(-n2cccn2)nc1)N1CCC(Nc2cccnn2)CC1 | -18.2
107 | O=C(NCc1cccnc1)C1CC(=O)N(CC2CC2)C1 (configuration not stated) | -6.68
108 | CCc1ccc(OCC(O)CN2CCC(O)CC2)cc1 (configuration not stated) | 24.8
109 | COc1cccc(CNC(=O)CN2CCCCC2Cn2cccn2)c1 (configuration not stated) | -7.75
110 | CCn1cc(CN2CCCN(C(=O)Cc3ccc(C)nc3)CC2)cn1 | -9.56
111 | Cc1cnn(CC2CN(Cc3nc4ccccc4nc3C)CCO2)c1 (configuration not stated) | -0.573
112 | Cc1ccc(C(=O)N2CCN(C(=O)Nc3ccccn3)CC2)o1 | 29.1
113 | CCc1n[nH]c(C2CN(C(=O)c3ccsc3)CCO2)n1 (configuration not stated) | -9.96
114 | O=C(NCCCn1cncn1)NCC(c1ccccc1)N1CCCC1 (configuration not stated) | 0.00173
115 | O=C(NCc1cccnc1-n1cccn1)C1CC(=O)N(CC2CC2)C1 (configuration not stated) | -13.2
116 | Cc1nnc(C2Cc3ccccc3CN2Cc2ncc(C(C)(C)C)o2)o1 (configuration not stated) | 34.5
117 | COc1c(CNCc2ccc(C(=O)NC3CC3)cc2)c(C)nn1C | -3.83
